US20080274121A1, “Inhibition of Angiogenesis by Mithramycin” (priority 2007, published 2008)

Key:
[1] = test system: PANC-1 cells; assay: Viable cell count in vitro, PANC-1; assay type: cell-based, human; settings: 100 μg/ml BVZ
Protocol: (§1) FIG. 14. Effects of treatment with BVZ and MIT on the growth of and gene expression in human pancreatic cancer cells in vitro. (A) BxPC3 and (B) PANC-1 cells were incubated for 1 to 5 days in a medium alone or a medium containing 100 μg/ml BVZ. The viable cells were counted every 24 hours. C, PANC-1 cells were incubated for 6 to 48 hours in a medium alone or a medium containing 100 μg/ml BVZ. Total protein lysates were harvested from the cell cultures, and the level of Sp1, EGFR, and VEGF protein expression was determined using Western blot analysis. Equal protein-sample loading was monitored by probing the same membrane filter with an anti-glyceraldehyde-3-phosphate dehydrogenase antibody (GAPDH). D and E, PANC-1 cells were treated with MIT at concentrations ranging from 0.1 to 1.2 μM for 24 and 48 hours. (D) Cytotoxicity was assessed using the MTT assay, and (E) the level of gene expression was determined using Western blot analysis. NS, nonspecific.
(§2) Effects of treatment with BVZ and MIT on the growth of and gene expression in human pancreatic cancer cells. To further determine whether treatment with BVZ directly impacts gene expression in pancreatic cancer cells, we incubated PANC-1 and BxPC3 cells in a medium alone or a medium containing 100 μg/ml BVZ for 6 to 48 hours.

[2] = test system: BxPC3 cells; assay: Viable cell count in vitro, BxPC3; assay type: cell-based, human; settings: 100 μg/ml BVZ
Protocol: as §1, §2

[3] = test system: Sp1, VEGF, EGFR, PDGFA, CD31 (MVD); assay: Gene expression and MVD in H727 tumor tissues; assay type: in vivo, nude mice
Protocol: FIG. 20. Upregulation of Sp1 and VEGF expression by treatment with BVZ and its reversal by treatment with MIT. The tumor tissues described in FIG. 4 were collected and processed as described in Materials and Methods. A. Frozen sections made from the tumors were used CD31 staining and MVD assessment. Representative photos of the stains are shown. B. Total protein lysates were harvested from tumor tissues, and the expression levels of Sp1, VEGF, EGFR and PDGFA protein were determined using Western blot analyses. Equal protein-sample loading was monitored by probing the same membrane filter with an anti-GAPDH antibody. C. The expression levels of Sp1, VEGF, EGFR and PDGFA were further determined by calculating the ratios between those genes and GAPDH.
Western blot analysis. Whole-cell lysates were prepared from human LGNET cell lines and tissues (21). Standard Western blotting was performed using polyclonal rabbit antibodies against human and mouse Sp1, VEGF, EGFR and PDGFA (Santa Cruz Biotechnology, Santa Cruz, Calif.) and the anti-rabbit IgG antibody, a horseradish peroxidase-linked F(ab′)2 fragment obtained from a donkey (Amersham, Arlington Heights, Ill.). Equal protein-sample loading was monitored by probing the same membrane filter with an antibody against glyceraldehyde-3-phosphate dehydrogenase (GAPDH) (21). The probe proteins were detected using the Amersham enhanced chemiluminescence system according to the manufacturer's instructions.
Immunohistochemical analysis and quantification of tumor MVD. For CD31 staining, frozen tissue sections (5 μm thick) were fixed in acetone. Endogenous peroxidase in the specimens was blocked using 3% hydrogen peroxide in phosphate-buffered saline (PBS) for 12 minutes. […] For quantification of tumor MVD, vessels on each section were counted in five high-power fields (magnification, ×200 [×20 objective and ×10 ocular]) as described previously (40). […]

## bevacizumab [BVZ]
[1]
  cell growth in vitro: did not affect the growth
[2]
  cell growth in vitro: did not affect the growth
[3]; combination study (FIGS. 20B and 20C), Western blot
  expression of PDGFA, VEGF, and EGFR in H727 tumor tissue: upregulated the expression of other proangiogenic molecules
[3]; combination study: PBS, BVZ, MIT, or B+M (FIG. 20)
  Sp1 expression in H727 tumor tissue: increased expression of Sp1
[3]; combination study: low-dose BVZ or MIT alone (FIG. 20)
  MVD: did not significantly reduce MVD
